Source: patent US10098881B2, “Compounds” (AUTIFONY THERAPEUTICS LIMITED, priority 2011, dated 2018)
Entries after “also recorded” stand apart in the source; their conditions may differ. Where two headings read alike, the source gives them in different places.

Assays:
[1] = Analysis of blood levels of Example 4 in study mice; assay type: in vivo; conditions: CD-1, whole blood, ip, mouse, 90 minutes after administration, n=3, mean [range], read-out: Blood concentration of Test Drug
Protocol: Blood samples were collected from a subset of study mice (n=3) at the end of the behavioural measurement (90 minutes post-dose of test drug), and assayed using a method based on protein precipitation with acetonitrile followed by HPLC-MS/MS analysis with an optimized analytical method. Since the stability of the analyte in blood and brain was unknown, Calibration standards (CS) and Quality control samples (QC) were prepared on the day of dosing and stored together with study samples. Study samples, CS, QC and blanks were spiked with rolipram as internal standard (IS). Study samples were analyzed in discrete batches together with CS, QC and blank samples.

Male CD-1 mice = assay: Biological Example 2: psychostimulant (amphetamine)-induced hyperactivity in mice; conditions: over 60 minutes, mean ± sem
[2] = tested on: "fast-firing" interneurons in the somatosensory cortex; assay: Recordings from identified fast-firing interneurons, trains of high frequency depolarising current pulses; assay type: cell-based, mouse; conditions: 1 microM, n=6; trains of depolarising pulses at 100, 200, 300 Hz; p<0.05 vs no drug; listed as Reference Example 9
Excerpt: FIG. 2. Recordings made from identified “fast-firing” interneurons in the somatosensory cortex of the mouse.
Kv3.1 and Kv3.2 channels must activate and deactivate very rapidly in order to allow neurons to fire actions potentials at high frequency (Rudy and McBain, 2001, Trends in Neurosciences 24, 517-526). Slowing of activation is likely to delay the onset of action potential repolarisation; slowing of deactivation could lead to hyperpolarising currents that reduce the excitability of the neuron and delay the time before the neuron can fire a further action potential. Together these slowing effects on channel activation and deactivation are likely to lead to a reduction rather than a facilitation of the neurons ability to fire at high frequencies. Thus compounds that have this slowing effect on the Kv3.1 and/or Kv3.2 channels may slow neuronal firing.
The neurons are induced to fire at high frequencies by trains of high frequency depolarising current pulses at 100, 200, and 300 Hz. The ability of the neuron to fire an action potential on each pulse is determined. […] In the absence of drug (closed circles, n=9), the neurons maintained a spike probability of 1 up to 300 Hz.

[3] = target: T1, human Kv3.2 channels (hKv3.2) (Homo sapiens, UniProt Q96PR1); assay: Biological Example 1: hKv3.2 whole-cell currents, IonWorks Quattro planar array electrophysiology; assay type: cell-based
T1 construct: expressed in transfected cells
T1 sequence (Q96PR1 1-638): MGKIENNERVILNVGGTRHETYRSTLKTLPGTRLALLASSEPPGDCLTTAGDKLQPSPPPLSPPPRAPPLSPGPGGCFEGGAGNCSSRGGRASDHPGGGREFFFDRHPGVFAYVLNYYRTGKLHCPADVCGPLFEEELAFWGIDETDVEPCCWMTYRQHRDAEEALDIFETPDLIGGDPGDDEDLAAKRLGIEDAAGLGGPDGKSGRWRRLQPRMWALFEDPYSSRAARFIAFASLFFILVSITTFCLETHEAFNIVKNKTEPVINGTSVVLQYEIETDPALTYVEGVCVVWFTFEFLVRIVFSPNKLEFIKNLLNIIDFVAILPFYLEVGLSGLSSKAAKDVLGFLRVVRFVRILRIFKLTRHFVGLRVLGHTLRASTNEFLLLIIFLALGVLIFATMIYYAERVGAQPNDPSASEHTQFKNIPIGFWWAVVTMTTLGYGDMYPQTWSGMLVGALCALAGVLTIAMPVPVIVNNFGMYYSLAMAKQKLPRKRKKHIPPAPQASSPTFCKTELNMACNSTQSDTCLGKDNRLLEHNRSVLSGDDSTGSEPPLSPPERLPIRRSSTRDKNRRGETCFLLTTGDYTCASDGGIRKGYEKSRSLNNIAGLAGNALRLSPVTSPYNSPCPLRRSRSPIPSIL
Excerpt: The ability of the compounds of the invention to modulate the voltage-gated potassium channel subtypes Kv3.2 or Kv3.1 may be determined using the following assay. Analogous methods may be used to investigate the ability of the compounds of the invention to modulate other channel subtypes, including Kv3.3 and Kv3.4.
To assess compound effects on human Kv3.2 channels (hKv3.2), a stable cell line expressing hKv3.2 was created by transfecting Chinese Hamster Ovary (CHO)-K1 cells with a pClH5-hKv3.2 vector. Cells were cultured in DMEM/F12 medium supplemented by 10% Foetal Bovine Serum, lx non-essential amino acids (Invitrogen) and 500 ug/ml of Hygromycin-B (Invitrogen). Cells were grown and maintained at 37° C. in a humidified environment containing 5% CO2 in air.
The day of the experiment, cells were removed from the incubator and the culture medium removed. Cells were washed with 5 ml of Dulbecco's PBS (DPBS) calcium and magnesium free and detached by the addition of 3 ml Versene (Invitrogen, Italy) followed by a brief incubation at 37° C. for 5 minutes. The flask was tapped to dislodge cells and 10 ml of DPBS containing calcium and magnesium was added to prepare a cell suspension. The cell suspension was then placed into a 15 ml centrifuge tube and centrifuged for 2 min at 1200 rpm. After centrifugation, the supernatant was removed and the cell pellet re-suspended in 4 ml of DPBS containing calcium and magnesium using a 5 ml pipette to break up the pellet. Cell suspension volume was then corrected to give a cell concentration for the assay of approximately 3 million cells per ml.
Experiments were conducted at room temperature using IonWorks Quattro™ planar array electrophysiology technology (Molecular Devices Corp.) with PatchPlate™ PPC. Stimulation protocols and data acquisition were carried out using a microcomputer (Dell Pentium 4). Planar electrode hole resistances (Rp) were determined by applying a 10 mV voltage step across each well. These measurements were performed before cell addition. […] Following this, amphotericin-B solution was added to the intracellular face of the electrode to achieve intracellular access. Cells were held at −70 mV. Leak subtraction was conducted in all experiments by applying 50 ms hyperpolarizing (10 mV) prepulses to evoke leak currents followed by a 20 ms period at the holding potential before test pulses. From the holding potential of −70 mV, a first test pulse to −15 mV was applied for 100 ms and following a further 100 ms at −70 mV, a second pulse to 40 mV was applied for 50 ms. Cells were then maintained for a further 100 ms at −100 mV and then a voltage ramp from −100 mV to 40 mV was applied over 200 ms. Test pulses protocol may be performed in the absence (pre-read) and presence (post-read) of the test compound. Pre- and post-reads may be separated by the compound addition followed by a 3 minute incubation.
The intracellular solution contained the following (in mM): K-gluconate 100, KCl 54, MgCl2 3.2, HEPES 5, adjusted to pH 7.3 with KOH. Amphotericin-B solution was prepared as […] stock solution in DMSO and diluted to a final working concentration of 0.1 mg/ml in intracellular solution.
Compounds of the invention (or reference compounds such as N-cyclohexyl-N-[(7,8-dimethyl-2-oxo-1,2-dihydro-3-quinolinyl)methyl]-N′-phenylurea were dissolved in dimethylsulfoxide (DMSO) at a stock concentration of 10 mM. These solutions were further diluted with DMSO using a Biomek FX
Each dilution (1 μL) was transferred to another compound plate and external solution containing 0.05% pluronic acid (66 μL) was added. 3.5 μL from each plate containing a compound of the invention was added and incubated with the cells during the lonWorks Quattro™ experiment. The final assay dilution was 200 and the final compound concentrations were in the range 50 μM to 50 nM.

| SMILES | concentration at 90 min ([1]; Example 4 3 mg/kg i.p.) | concentration at 90 min ([1]; Example 4 10 mg/kg i.p.) | concentration at 90 min ([1]; Example 4 30 mg/kg i.p.) | Locomotor activity (beam crosses) (Male CD-1 mice; AMPH 2 mg/kg i.p. + Example 4 3 mg/kg i.p. 30 min before) | Locomotor activity (beam crosses) (Male CD-1 mice; AMPH 2 mg/kg i.p. + Example 4 10 mg/kg i.p. 30 min before, p<0.05 vs amphetamine alone) | Locomotor activity (beam crosses) (Male CD-1 mice; AMPH 2 mg/kg i.p. + Example 4 30 mg/kg i.p. 30 min before, p<0.001 vs amphetamine alone) | ability of the neurons to fire on each pulse (spike probability) [2] | Tauact mean ([3]; hKv3.2, -15 mV voltage step, compound 0.2 μM (concentration giving ~0.3 nA current at end of pulse)) | Tauact ([3]; hKv3.2, each tested at a concentration that increased the Kv3.2 current to a similar level (~0.3 nA)) |
| --- | --- | --- | --- | --- | --- | --- | --- | --- | --- |
| Cc1ccc(Oc2ncc(N3C(=O)NC(C)(C)C3=O)cn2)c2c1OCC21CC1 [Example 4, 5,5-dimethyl-3-[2-(7-methylspiro[2H-benzofuran-3,1′-cyclopropane]-4-yl)oxypyrimidin-5-yl]imidazolidine-2,4-dione] | 98 ng/mL | 244 ng/mL | 2140 ng/mL | 10263 ± 2443 beam crosses | 9015 ± 1413 beam crosses | 4555 ± 922 beam crosses |  |  |  |
| CC[C@H]1NC(=O)N(c2ccc(Oc3cccc4c3C3(CC3)CO4)nc2)C1=O [RE9, reference compound] |  |  |  |  |  |  | reduces the ability of the neurons to fire; also recorded: unable to follow trains at the highest frequency | 50.1 ms | 50.1 ± 7.5 ms |
